Holding throughout (assay): luminescence titration
Common to all, as to details: Na+ 100 mM; 20 mM Tris-HCl, pH 7.5, 298 K; apparent

Assay [1] deals with A2T3 (DNA, hairpin) GGCGAATTTCGCTTTTTGCGAAATTCGCC
The subject of assay [2] is A2T2 (DNA, hairpin) GGCGAATTCAGCTTTTTGCTGAATTCGCC
The test system of assay [3] is G2C3 (DNA, hairpin) GGCAGGCCCAGCTTTTTGCTGGGCCTGCC
Assay [4] relates to A3T3 (DNA, hairpin) GGCAAATTTCAGTTTTTCTGAAATTTGCC

For the compound `N=C(N)c1ccc(NCc2ccnc(-c3cc(CNc4ccc(C(=N)N)cc4)ccn3)c2)cc1.[Ir+3].[c-]1ccccc1-c1ccccn1.[c-]1ccccc1-c1ccccn1` [Δ-4Ir], the KD in assay [1] is 0.49 (0.03) μM; in assay [2] it was 0.27 (0.09) μM; in assay [3], 1.44 (0.09) μM; in assay [4], 1.01 (0.12) μM.

In the case of `N=C(N)c1ccc(NCc2ccnc(-c3cc(CNc4ccc(C(=N)N)cc4)ccn3)c2)cc1.[Ir+3].[c-]1ccccc1-c1ccccn1.[c-]1ccccc1-c1ccccn1` [Λ-4Ir], the KD is 0.62 (0.04) μM in assay [1], 1.15 (0.13) μM in assay [2], 0.70 (0.05) μM in assay [3] and 0.47 (0.03) μM in assay [4].

(Values after publication PMC6849638 (2019).)
